In this test the test system is UDP-Glucuronosyltransferase (UDP-GT). As to the kind of experiment: UDP-glucuronosyltransferase (UDP-GT) activity in liver microsomes of treated mice, o-aminophenol substrate. Format: in vivo, Female A/J mice. The settings on record: for Ratio Test/con (UDP-GT): gavage; for UDP-GT activity (column head prints GSH conc.): gavage in corn oil. As for the experimental part: Microsomal samples were assayed for enzymatic conjugation by modifying the procedure of Zakim et al., Methods of Biochemical Analysis, ed. David Glick, 21:1-37, (1973). using o-aminophenol as the substrate. The complete assay solution contains, in a total volume of 500 μl, 0.25 M phosphate buffer (pH 7.6), 0.002 M o-aminophenol, 0.05 M UDPGA, 0.125 M magnesium chloride and 100 μl microsomes. The mixture was incubated for 30 minutes. Reactions were stopped by the addition of 500 μl of TCA-sodium phosphate reagent. The precipitated protein was removed, 100 μl of 0.05% sodium nitrite was added to 950 μl of the supernatent solution and allowed to stand for 5 minutes. 100 μl of 0.5% ammonium sulfamate was added, after 5 minutes. 100 μl of 0.12% N-(-1-naphthyl)ethylenediamine dihydrochloride was added and incubated for 2 hours in the dark; and the difference in the optical density between the blanks and the samples were recorded at 555 nm in a Beckman model DU65 UV-VIS spectrophotometer. The UDP-GT activity was calculated using the extinction coefficient 29 mM-1 cm-1 for the coupled product.
For orientation: Liver microsomes are a subcellular fraction often used to study metabolism.

Marks after values point to notes of the source that are not given here.

With `N#C[Se]Cc1ccc(C[Se]C#N)s1` [(2) TDMSC, thienyl-2,5-di-methylene selenocyanate], the “Ratio Test/con (UDP-GT)” value reads like this: (dose 0.02 mmol/Kg body weight) 1.58; (dose 0.04 mmol/Kg body weight) 2.81; (dose 0.04 mmol/Kg body weight, listed as TDMSC 2) 3.0. The “UDP-GT activity (column head prints GSH conc.)” value reads like this: (dose 0.02 mmol/Kg body weight) 7.00 ± 1.07 ^c nmol/min/mg protein; (dose 0.04 mmol/Kg body weight) 12.44 ± 2.31 ^c nmol/min/mg protein.
